# Results published in US12679843B2, “Pyrrolopyrimidine amines as complement inhibitors” (BioCryst Pharmaceuticals, Inc., priority 2020, dated 2026).
# Molecular target: Factor D (Homo sapiens, UniProt P00746)
# Experiment: Factor D esterolytic assay (Z-Lys-SBzl thioester substrate, DTNB, 405 nm)
# Format: biochemical
# Settings: substrate Z-Lys-SBzl 1.29 mM, 100 mM HEPES, 500 mM NaCl, pH 7.5, 10% DMSO, tested a minimum of three times
# Method in brief: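 Run in pH 7.5 HEPES (100 mM) with 500 mM NaCl and 10% DMSO, with compound preincubated at room temperature or not before adding 1.29 mM Z-Lys-SBzl. Free thiol released by Factor D reacts with DTNB, and rate is followed at 405 nm minus 690 nm over 600 s. IC50 derives from rate-based inhibition, minimum three replicates.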
# Sequence of Factor D (P00746 26-253): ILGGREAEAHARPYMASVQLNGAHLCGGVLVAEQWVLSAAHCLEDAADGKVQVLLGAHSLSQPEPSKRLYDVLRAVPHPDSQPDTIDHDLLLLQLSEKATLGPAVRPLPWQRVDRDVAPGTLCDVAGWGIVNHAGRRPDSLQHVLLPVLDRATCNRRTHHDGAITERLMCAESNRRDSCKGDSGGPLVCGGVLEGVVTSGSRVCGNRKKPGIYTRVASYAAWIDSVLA
row,IC50 [nM],SMILES
1,< 100,"Cc1cc(-c2ccc(C(F)(F)F)nc2)cc2c3c(N)ncnc3n(CC(=O)N3[C@H](C(=O)Nc4cccc(Br)n4)C[C@@]4(C)C[C@@H]34)c12 [Compound 357a, (1R,3S,5R)-2-(2-(4-amino-8-methyl-6-(6-(trifluoromethyl)pyridin-3-yl)-9H-pyrimido[4,5-b]indol-9-yl)acetyl)-N-(6-bromopyridin-2-yl)-5-methyl-2-azabicyclo[3.1.0]hexane-3-carboxamide]"
2,100 to 1000,"Cc1cc(-c2cccnc2C(F)(F)F)cc2c3c(N)ncnc3n(CC(=O)N3[C@H](C(=O)Nc4cccc(Br)n4)C[C@@]4(C)C[C@@H]34)c12 [Compound 358c, (1R,3S,5R)-2-(2-(4-amino-8-methyl-6-(2-(trifluoromethyl)pyridin-3-yl)-9H-pyrimido[4,5-b]indol-9-yl)acetyl)-N-(6-bromopyridin-2-yl)-5-methyl-2-azabicyclo[3.1.0]hexane-3-carboxamide]"
3,< 100,"Cc1cc(C2CC2)cc2c3c(N)ncnc3n(CC(=O)N3[C@H](C(=O)Nc4cccc(Br)n4)C[C@@]4(C)C[C@@H]34)c12 [Compound 361a, (1R,3S,5R)-2-(2-(4-amino-6-cyclopropyl-8-methyl-9H-pyrimido[4,5-b]indol-9-yl)acetyl)-N-(6-bromopyridin-2-yl)-5-methyl-2-azabicyclo[3.1.0]hexane-3-carboxamide]"
4,< 100,"Cc1cc(C(F)(F)F)nc2c3c(N)ncnc3n(CC(=O)N3[C@H](C(=O)Nc4cccc(Br)n4)C[C@@]4(C)C[C@@H]34)c12 [Compound 363a, (1R,3S,5R)-2-(2-(4-amino-8-methyl-6-(trifluoromethyl)-9H-pyrido[2′,3′:4,5]pyrrolo[2,3-d]pyrimidin-9-yl)acetyl)-N-(6-bromopyridin-2-yl)-5-methyl-2-azabicyclo[3.1.0]hexane-3-carboxamide]"
5,< 100,"COc1cc2c(cc1C(F)(F)F)c1c(N)ncnc1n2CC(=O)N1[C@@H]2C[C@@H]2C[C@H]1C(=O)Nc1cccc(Br)n1 [Compound 367g, (1R,3S,5R)-2-(2-(4-amino-7-methoxy-6-(trifluoromethyl)-9H-pyrimido[4,5-b]indol-9-yl)acetyl)-N-(6-bromopyridin-2-yl)-2-azabicyclo[3.1.0]hexane-3-carboxamide]"
6,< 100,"COc1cc2c(cc1C(F)(F)F)c1c(N)ncnc1n2CC(=O)N1[C@H](C(=O)Nc2cccc(Br)n2)C[C@@]2(C)C[C@@H]12 [Compound 368a, (1R,3S,5R)-2-(2-(4-amino-7-methoxy-6-(trifluoromethyl)-9H-pyrimido[4,5-b]indol-9-yl)acetyl)-N-(6-bromopyridin-2-yl)-5-methyl-2-azabicyclo[3.1.0]hexane-3-carboxamide]"

# The remaining lines, values behind:
row,SMILES,IC50 [nM]
1,"Cc1cc(-c2ccc(C(F)(F)F)nc2)cc2c3c(N)ncnc3n(CC(=O)N3[C@@H]4C[C@@H]4C[C@H]3C(=O)Nc3cccc(Br)n3)c12 [Compound 356c, (1R,3S,5R)-2-(2-(4-amino-8-methyl-6-(6-(trifluoromethyl)pyridin-3-yl)-9H-pyrimido[4,5-b]indol-9-yl)acetyl)-N-(6-bromopyridin-2-yl)-2-azabicyclo[3.1.0]hexane-3-carboxamide]",< 100
2,"Cc1cc(-c2ccco2)cc2c3c(N)ncnc3n(CC(=O)N3[C@H](C(=O)Nc4cccc(Br)n4)C[C@@]4(C)C[C@@H]34)c12 [Compound 359c, (1R,3S,5R)-2-(2-(4-amino-6-(furan-2-yl)-8-methyl-9H-pyrimido[4,5-b]indol-9-yl)acetyl)-N-(6-bromopyridin-2-yl)-5-methyl-2-azabicyclo[3.1.0]hexane-3-carboxamide]",< 100
3,"Cc1cc(C2CC2)cc2c3c(N)ncnc3n(CC(=O)N3[C@@H]4C[C@@H]4C[C@H]3C(=O)Nc3cccc(Br)n3)c12 [Compound 360c, (1R,3S,5R)-2-(2-(4-amino-6-cyclopropyl-8-methyl-9H-pyrimido[4,5-b]indol-9-yl)acetyl)-N-(6-bromopyridin-2-yl)-2-azabicyclo[3.1.0]hexane-3-carboxamide]",< 100
4,"Cc1cc(C(F)(F)F)nc2c3c(N)ncnc3n(CC(=O)N3[C@@H]4C[C@@H]4C[C@H]3C(=O)Nc3cccc(Br)n3)c12 [Compound 362f, (1R,3S,5R)-2-(2-(4-amino-8-methyl-6-(trifluoromethyl)-9H-pyrido[2′,3′:4,5]pyrrolo[2,3-d]pyrimidin-9-yl)acetyl)-N-(6-bromopyridin-2-yl)-2-azabicyclo[3.1.0]hexane-3-carboxamide]",< 100
5,"Cc1ncc(NC(=O)[C@@H]2C[C@@]3(C)C[C@H]3N2C(=O)Cn2c3ncnc(N)c3c3cc(C(F)(F)F)cc(C)c32)nc1Br [Compound 364d, (1R,3S,5R)-2-(2-(4-amino-8-methyl-6-(trifluoromethyl)-9H-pyrimido[4,5-b]indol-9-yl)acetyl)-N-(6-bromo-5-methylpyrazin-2-yl)-5-methyl-2-azabicyclo[3.1.0]hexane-3-carboxamide]",< 100
6,"Cc1ncc(NC(=O)[C@@H]2C[C@@]3(C)C[C@H]3N2C(=O)Cn2c3ncnc(N)c3c3cc(C(F)(F)F)cc(C)c32)nc1Cl [Compound 364e, (1R,3S,5R)-2-(2-(4-amino-8-methyl-6-(trifluoromethyl)-9H-pyrimido[4,5-b]indol-9-yl)acetyl)-N-(6-chloro-5-methylpyrazin-2-yl)-5-methyl-2-azabicyclo[3.1.0]hexane-3-carboxamide]",< 100
7,"Cc1ccc(Cl)nc1NC(=O)[C@@H]1C[C@@H](F)CN1C(=O)Cn1c2ncnc(N)c2c2cc(C(F)(F)F)cc(C)c21 [Compound 365c, (2S,4R)-1-(2-(4-amino-8-methyl-6-(trifluoromethyl)-9H-pyrimido[4,5-b]indol-9-yl)acetyl)-N-(6-chloro-3-methylpyridin-2-yl)-4-fluoropyrrolidine-2-carboxamide]",< 100
8,"Cc1cc(F)c(Br)nc1NC(=O)[C@@H]1C[C@@H](F)CN1C(=O)Cn1c2ncnc(N)c2c2cc(C(F)(F)F)cc(C)c21 [Compound 366c, (2S,4R)-1-(2-(4-amino-8-methyl-6-(trifluoromethyl)-9H-pyrimido[4,5-b]indol-9-yl)acetyl)-N-(6-bromo-5-fluoro-3-methylpyridin-2-yl)-4-fluoropyrrolidine-2-carboxamide]",< 100
9,"Nc1ncnc2c1c1cc(C(F)(F)F)cc(F)c1n2CC(=O)N1[C@@H]2C[C@@H]2C[C@H]1C(=O)Nc1cccc(Br)n1 [Compound 369g, (1R,3S,5R)-2-(2-(4-amino-8-fluoro-6-(trifluoromethyl)-9H-pyrimido[4,5-b]indol-9-yl)acetyl)-N-(6-bromopyridin-2-yl)-2-azabicyclo[3.1.0]hexane-3-carboxamide]",< 100
10,"Cc1cc(-c2ccco2)cc2c3c(N)ncnc3n(CC(=O)N3[C@@H]4C[C@@H]4C[C@H]3C(=O)Nc3cccc(Br)n3)c12 [Compound 370a, (1R,3S,5R)-2-(2-(4-amino-6-(furan-2-yl)-8-methyl-9H-pyrimido[4,5-b]indol-9-yl)acetyl)-N-(6-bromopyridin-2-yl)-2-azabicyclo[3.1.0]hexane-3-carboxamide]",< 100
11,"Nc1ncnc2c1c1nc(-c3cccnc3)ccc1n2CC(=O)N1[C@@H]2C[C@@H]2C[C@H]1C(=O)Nc1cccc(Br)n1 [Compound 371c, (1R,3S,5R)-2-(2-(4-amino-6-(pyridin-3-yl)-9H-pyrido[2′,3′:4,5]pyrrolo[2,3-d]pyrimidin-9-yl)acetyl)-N-(6-bromopyridin-2-yl)-2-azabicyclo[3.1.0]hexane-3-carboxamide]",100 to 1000
